“Also recorded” adds a separate entry of the source. Numbered stars: 1 amine (or outer) side, 2 acyl side, 3 side chain; on linkers, the order of the positions; unused ones are H or OH. * marks the point of attachment. AMC = Cc1cc(=O)oc2cc(N*)ccc12; Suc = O=C(CCC(=O)[*:2])[*:1]; Cbz = O=C(OCc1ccccc1)*
Assays:
recombinant LmHslV [1] = test: LmHslV peptidase activation by HslU C-terminal peptides, substrate Z-EVNL-AMC (JMV4482); format: biochemical, Leishmania major; conditions: for LmHslV activation relative to reference peptide 10 (LmC12-U2) / Potency of LmHslV activation relative to LmC12-U2: LmHslV 75.2 nM, Figure 3; for LmHslV activation relative to reference peptide 10 (LmC12-U2): initial velocity normalised to 10 = 100%; for LmHslV activation, Ala-scan, D-scan and truncations, relative to LmC12-U2: LmHslV 2 μg, 30 min at 37 °C, JMV4482 (Z-EVNL-AMC) 100 μM, Figure 4
Method: (§1) Activity assay: The peptidase activity of recombinant LmHslV was assessed by measuring the fluorescence of AMC released after hydrolysis of the fluorogenic substrates Z-GGL-AMC or JMV4482 (Z-EVNL-AMC), 100 µM. LmHslV activation was obtained by addition of activating peptides (see type and concentration in the figure legends). Activity buffer: 25 mM Tris-HCl pH 8.0, 1 mM DTT, 0.5 mM EDTA and 5 mM MgCl2. Most of the experiments were performed in a final volume of 50 µL in black 96-well microplates (Fisher Scientific, Illkirch, France. Fluorescence was measured using a spectrofluorimeter (BIO-TEK Instrument, Inc., Winooski, VT, USA): filters 360/340 for excitation and 460/440 for emission.
Figure 3 Both peptides derived from the C-terminal end of either LmHslU1 or LmHslU2 and analogues from other microorganisms are able to support LmHslV activation. LmHslV (75,2nM) was incubated at 37 °C with the peptide substrate Z-EVNL-AMC (100 μM) in the presence of peptides 8–11 and 1–15 (500 μM). A scrambled version of LmC12-U2 (44) was also included. The fluorescence of the free AMC group, proportional to the activity of the sample, was measured at 2 min. intervals.
Figure 4 Sequence requirements for activation of LmHslV by C-terminal LmHslU2 peptides. (A) Alascan. Percentage of initial velocity relative to compound LmC12-U2. Fluorescence was measured for 30 min incubation at 37 °C of LmHslV (2 μg) with 100 μM JMV4482 (Z-EVNL-AMC) in the presence of 500 μM peptides. (B) D-scan. Percentage of initial velocity relative to compound LmC12-U2. Activity was measured as in (A). (C) Truncated peptides. Percentage of activity relative to compound LmC12-U2, measured as in (A).
Figure 5 Effect of conformational constraints on HslV activation by HslU C-terminal peptides. HslV activity was measured in the presence of various cyclic analogues of LmC12-U2 and LmC9-U2. Values are expressed as percentage of initial velocity relative to compound LmC12-U2.
Figure S3. Effect of LmC12-U2 dimerization. LmHslV has been incubated at 37°C for 30 min with […]
the substrate Z-EVNL-AMC (100µM). The fluorescence generated by the cleavage of the substrate was recorded at 5 min intervals. The dotted line represents the ratio at each time point between the fluorescence values obtained with the two peptides.
(also on this page, place not known: dimerization . ( 12), Di-C12 / C12 Fluorescence (arbitrary unit) Ratio)

recombinant LmHslV [2] = test: LmHslV peptidase activation by HslU C-terminal peptides, substrate Z-GGL-AMC; format: biochemical, Leishmania major; conditions: in words; for Activation of LmHslV (AMC fluorescence liberated per minute): LmHslV 300 nM, 37 °C, Z-GGL-AMC 100 μM, peptide 2.2 mM, read every 15 min for 2 h, mean of two replicates, Figure 1
Method: as §1
Figure 1 Activation of LmHslV by HslU-derived peptides. (A) Activation of LmHslV by peptides corresponding to the 8 C-terminal residues of LmHslU1 (compound 1) and U2 (compound 4). LmHslV (300 nM) was incubated at 37 °C with the peptide substrate Z-GGL-AMC (100μM) in the presence of vehicle (left) or 2.2 mM of the peptides H-LmC8-U1 or Ac-LmC8-U2. The fluorescence of the free AMC group liberated by hydrolysis of the substrate, which is proportional to the proteolytic activity of the sample, was measured every 15 min for 2 h. The activity is calculated as fluorescence units liberated by the minute during the linear period of the assay. The values are the mean of two experimental replicates for a representative experiment; errors bars represent deviation from the mean of the values. (B) LmHslV can also be activated by octapeptides derived from the C-terminus of […] from E. coli. Assays were performed as in (A), using compounds 4 (Ac-LmC8-U2), 6 (H-EcC8-U) and 7 (Ac-EcC8-U).

LmHslV = test: Degradation of fluorogenic substrates by LmC12-U2-activated LmHslV; format: biochemical, Leishmania major; conditions: LmHslV 75.2 nM, 37 °C, substrate 100 μM, activating peptide LmC12-U2 500 μM; Figure 2; in words
Method: as §1
Figure 2 Degradation of different fluorogenic substrates by LmHslV. LmHslV (75.2 nM) was incubated at 37 °C with different fluorogenic substrates (100 μM) in the presence of the activating peptide LmC12-U2 (500 μM). The fluorescence of the free AMC group, proportional to the activity of the sample, was measured at 2 min. intervals. With each substrate, no activity was measured in the absence of activating peptide: for the sake of clarity, only the negative control values obtained with the substrate ZGGL-AMC are shown.

[3] = Circular dichroism, α-helix content from θ at 222 nm; format: physicochemical; conditions: for Helicity%: 25 mM Tris-HCl pH 8.0, 20 °C, 100% helicity for θ = −36,000; for θmre at 222 nm: 25 mM Tris-HCl pH 8.0, around 200 μM peptide, 20 °C, 1 mm cuvette, 3 scans
Method: CD spectra (Figure S2) were recorded on a JASCO J-815 spectropolarimeter from 190 to 260 nm (data pitch of 0.1 nm, continuous scanning mode, 200 nm/min, 3 scans) at 20 °C, using a 1 mm path length cuvette. Baseline was corrected by subtracting the background from the sample spectrum.
Peptides were solubilised in 50 mM Tris-HCl, pH 8.0 buffer at an estimated concentration of 400 μM according to their apparent molecular mass (i.e. M + xTFA with x = number of basic groups). The solutions were then diluted twice (25 mM Tris and around 200 μM peptides final concentrations) with: […]

[4] = 37 °C, Z-EVNL-AMC 100 μM, peptide 500 μM, in words
[5] = substrate Z-EVNL-AMC, Figure 5, in words
[6] = 37 °C, Z-EVNL-AMC 100 μM, peptide 500 μM

1,2,3-Triazole-1,4 = [CH2CH2CO-(O2Oc)3-Leu-Gln-Lys-Asn-Val-Asn-Leu-Ala-Lys-Tyr-Leu-Leu-OH]2 [Compound 12]
HslV activity with dimer relative to monomer 10 (recombinant LmHslV [1]; LmHslV, 37 °C, 30 min, peptide 550 μM, Z-EVNL-AMC 100 μM, Figure S3, in words): about twice that reached with the monomer

Ac-EDLSRFIL-OH [Compound 7]
Activation of LmHslV (AMC fluorescence liberated per minute) (recombinant LmHslV [2]): also found to activate LmHslV

Ac-VNLAKYLL-OH [Compound 4]
Activation of LmHslV (AMC fluorescence liberated per minute) (recombinant LmHslV [2]): robust activation

Cbz-Gly-Gly-Leu-{AMC}
Degradation of fluorogenic substrate by activated LmHslV (LmHslV): degraded by peptide-activated LmHslV

H-EDLSRFIL-OH [Compound 6]
Activation of LmHslV (AMC fluorescence liberated per minute) (recombinant LmHslV [2]): also found to activate LmHslV

H-VDIKKFIL-OH [Compound 1]
Activation of LmHslV (AMC fluorescence liberated per minute) (recombinant LmHslV [2]): able to activate the protease

H-arg-O2OC-Asn-Val-Asn-Leu-Ala-Lys-Tyr-Leu-Leu-OH [Compound 29]
Helicity% ([3]; 0% TFE): 5% | θmre at 222 nm ([3]; 0% TFE): −1711 deg.cm^2.dmol^−1 | Helicity% ([3]; 25% TFE): 11% | θmre at 222 nm ([3]; 25% TFE): −4130 deg.cm^2.dmol^−1 | Helicity% ([3]; 50% TFE): 13% | θmre at 222 nm ([3]; 50% TFE): −4733 deg.cm^2.dmol^−1

H-arg-O2Oc-Asn-Leu-Tyr-Lys-Leu-Val-Gln-Leu-Leu-Asn-Lys-Ala-OH [Compound 44]
LmHslV activation relative to reference peptide 10 (LmC12-U2) (recombinant LmHslV [1]; [4]): no activity

H-arg-O2Oc-Leu-Gln-Lys-Asn-Val-Asn-Leu-Ala-Lys-Phe-Leu-Leu-OH [Compound 11]
LmHslV activation relative to reference peptide 10 (LmC12-U2) (recombinant LmHslV [1]; [4]): decreased activity; also recorded: reverse effect

H-arg-O2Oc-Leu-Gln-Lys-Asn-Val-Asn-Leu-Ala-Lys-Tyr-Leu-Leu-OH [Compound 10]
LmHslV activation, Ala-scan, D-scan and truncations, relative to LmC12-U2 (recombinant LmHslV [1]; peptide 500 μM, in words): by far the most potent activator | Activation of LmHslV compared with LmC8-U2 peptide 4 (recombinant LmHslV [2]; substrate Z-GGL-AMC, preliminary experiments): much more efficiently than the LmC8-U2 peptide 4

H-arg-O2Oc-Leu-Gln-Lys-Asn-Val-Asn-Leu-ala-Lys-Tyr-Leu-Leu-OH [Compound 24]
LmHslV activation, Ala-scan, D-scan and truncations, relative to LmC12-U2 (recombinant LmHslV [1]; peptide 500 μM, in words): residual activity | Decrease in activity relative to LmC12-U2 (recombinant LmHslV [1]; Z-EVNL-AMC 100 μM, peptide 500 μM, D-scan): 80%

H-arg-O2Oc-Leu-Gln-Lys-Asn-Val-Asn-leu-Ala-Lys-Tyr-Leu-Leu-OH [Compound 23]
LmHslV activation, Ala-scan, D-scan and truncations, relative to LmC12-U2 (recombinant LmHslV [1]; peptide 500 μM, in words): no activity

H-arg-O2Oc-Leu-Gln-Lys-c[Asp-Val-Asn-Leu-Dap]-Lys-Tyr-Leu-Leu-OH (sidechain bridge or staple) [Compound 42]
LmHslV activation by cyclic analogues relative to reference peptide 10 (recombinant LmHslV [1]; [5]): almost half as active as the reference peptide

H-arg-O2Oc-Leu-Gln-Lys-c[Asp-Val-Asn-Leu-Lys]-Lys-Tyr-Leu-Leu-OH (sidechain bridge or staple) [Compound 37]
LmHslV activation by cyclic analogues relative to reference peptide 10 (recombinant LmHslV [1]; [5]): the more potent cyclic analogue | Helicity% ([3]; 0% TFE): 5% | θmre at 222 nm ([3]; 0% TFE): −1626 deg.cm^2.dmol^−1 | Helicity% ([3]; 25% TFE): 17% | θmre at 222 nm ([3]; 25% TFE): −6143 deg.cm^2.dmol^−1 | θmre at 222 nm ([3]; 50% TFE): −7628 deg.cm^2.dmol^−1

H-arg-O2Oc-Leu-Gln-Lys-c[Asp-Val-Asn-Leu-Orn]-Lys-Tyr-Leu-Leu-OH (sidechain bridge or staple) [Compound 41]
LmHslV activation by cyclic analogues relative to reference peptide 10 (recombinant LmHslV [1]; [5]): activity decreased

H-arg-O2Oc-Leu-Gln-Lys-c[Asp-Val-Asn-Leu-lys]-Lys-Tyr-Leu-Leu-OH (sidechain bridge or staple) [Compound 39]
LmHslV activation by cyclic analogues relative to reference peptide 10 (recombinant LmHslV [1]; [5]): much more potent than the linear compound 24

H-arg-O2Oc-Leu-Gln-Lys-c[asp-Val-Asn-Leu-lys]-Lys-Tyr-Leu-Leu-OH (sidechain bridge or staple) [Compound 40]
Relative potency: percentage of initial velocity relative to LmC12-U2 (recombinant LmHslV [1]; cyclic analogues, substrate Z-EVNL-AMC, Figure 5): 55%

H-arg-O2Oc-Leu-Met-Asn-Asn-Ile-Asp-Leu-Ala-Lys-Tyr-Ile-Leu-OH [Compound 13]
Potency of LmHslV activation relative to LmC12-U2 (recombinant LmHslV [1]; [6]): twice

H-arg-O2Oc-Leu-Val-Ala-Asp-Glu-Asp-Leu-Ser-Arg-Phe-Ile-Leu-OH [Compound 15]
LmHslV activation relative to reference peptide 10 (LmC12-U2) (recombinant LmHslV [1]; [4]): as potent as LmC12-U2

H-arg-O2Oc-Met-Val-Lys-Lys-Val-Asp-Ile-Lys-Lys-Tyr-Ile-Leu-OH [Compound 9]
LmHslV activation relative to reference peptide 10 (LmC12-U2) (recombinant LmHslV [1]; [4]): increase in activity; also recorded: large increase in potency

H-arg-O2Oc-Phe-Ile-Lys-Gln-Tyr-Asp-Leu-Lys-Lys-Tyr-Ile-Ile-OH [Compound 14]
Potency of LmHslV activation relative to LmC12-U2 (recombinant LmHslV [1]; [6]): 1.5 fold

H-arg-O2Oc-c[Asp-Val-Asn-Leu-Lys]-Lys-Tyr-Leu-Leu-OH (sidechain bridge or staple) [Compound 43]
LmHslV activation by cyclic analogues relative to reference peptide 10 (recombinant LmHslV [1]; [5]): almost as active as the reference peptide 10; also recorded: did not reduce the activity compared to LmC12-U2 (10) | Helicity% ([3]; 0% TFE): 6% | θmre at 222 nm ([3]; 0% TFE): −2225 deg.cm^2.dmol^−1 | Helicity% ([3]; 25% TFE): 14% | θmre at 222 nm ([3]; 25% TFE): −5026 deg.cm^2.dmol^−1 | Helicity% ([3]; 50% TFE): 14% | θmre at 222 nm ([3]; 50% TFE): −5140 deg.cm^2.dmol^−1

Suc-LLVY-{AMC}
Degradation of fluorogenic substrate by activated LmHslV (LmHslV): degraded by peptide-activated LmHslV

Source: paper PMC6429459, “The HslV Protease from Leishmania major and Its Activation by C-terminal HslU Peptides” (International Journal of Molecular Sciences, 2019)
